Reference: ChEMBL document CHEMBL3885861, “Open TG-GATES”

Species: Rattus norvegicus
Test: Open TG-GATES - Regimen: Single
Assay type: toxicity, organism-based, Sprague-Dawley
Parameters: regimen Single, gender Male, age 6 weeks
Conditions: in vivo, po, route gavage; for APTT / Bas / Eos / Fbg / Hb / Ht / Lym / MCH / MCHC / MCV / Mono / Neu / PT / Plat / RBC / Ret / WBC: tissue Blood; for KIDNEY_L / KIDNEY_R / KIDNEY_TOTAL: tissue Kidney; for LIVER: tissue Liver; for ALP / ALT / AST / CRE / DBIL / GLC / IP / K / LDH / Na / PL / RALB / TBIL / TC / TP / gamma-GTP: tissue Plasma
[1] = 300 mg/kg, 3 h, dose level Middle
[2] = 300 mg/kg, 6 h, dose level Middle
[3] = 300 mg/kg, 9 h, dose level Middle
[4] = 300 mg/kg, 24 h, dose level Middle
[5] = 1000 mg/kg, 3 h, dose level High
[6] = 1000 mg/kg, 6 h, dose level High
[7] = 1000 mg/kg, 9 h, dose level High
[8] = 1000 mg/kg, 24 h, dose level High

## Clc1ccccc1CN1CCc2sccc2C1 [TICLOPIDINE]
[1]
  TERMINAL_BW: 211.8 g
  APTT: 19.5 s
  Bas: 0%
  Eos: 1%
  Fbg: 220.8 mg/dL
  Hb: 13.1 g/dL
  Ht: 37.1%
  Lym: 73.4%
  MCH: 21.8 pg
  MCHC: 35.3%
  MCV: 61.6 fL
  Mono: 2.8%
  Neu: 21.6%
  PT: 12.2 s
  Plat: 124.1 x10_4/uL
  RBC: 602.2 x10_4/ul
  Ret: 8.4%
  WBC: 73.9 x10_2/uL
  KIDNEY_L: 0.9 g
  KIDNEY_R: 1 g
  KIDNEY_TOTAL: 1.9 g
  LIVER: 9 g
  ALP: 999 IU/L
  ALT: 36.2 IU/L
  AST: 74 IU/L
  CRE: 0.4 mg/dL
  DBIL: 0.078 mg/dL
  GLC: 194.2 mg/dL
  IP: 10.5 mg/dL
  K: 3.7 meq/L
  LDH: 161.4 IU/L
  Na: 141 meq/L
  PL: 129.2 mg/dL
  RALB: 3.3 g/dL
  TBIL: 0.1 mg/dL
  TC: 72.6 mg/dL
  TP: 5.4 g/dL
  gamma-GTP: 0.8 IU/L
[2]
  TERMINAL_BW: 209.7 g
  APTT: 18.1 s
  Bas: 0.2%
  Eos: 0.8%
  Fbg: 226.8 mg/dL
  Hb: 13.5 g/dL
  Ht: 39.1%
  Lym: 77%
  MCH: 21.1 pg
  MCHC: 34.5%
  MCV: 61.3 fL
  Mono: 2.4%
  Neu: 18.4%
  PT: 12.1 s
  Plat: 131 x10_4/uL
  RBC: 637.6 x10_4/ul
  Ret: 7.8%
  WBC: 76.9 x10_2/uL
  KIDNEY_L: 1 g
  KIDNEY_R: 1 g
  KIDNEY_TOTAL: 1.9 g
  LIVER: 9.1 g
  ALP: 909.6 IU/L
  ALT: 34 IU/L
  AST: 74.6 IU/L
  CRE: 0.4 mg/dL
  DBIL: 0.078 mg/dL
  GLC: 192 mg/dL
  IP: 10 mg/dL
  K: 3.9 meq/L
  LDH: 213 IU/L
  Na: 141 meq/L
  PL: 134 mg/dL
  RALB: 3.4 g/dL
  TBIL: 0.1 mg/dL
  TC: 76.2 mg/dL
  TP: 5.5 g/dL
  gamma-GTP: 1.2 IU/L
[3]
  TERMINAL_BW: 208.6 g
  APTT: 18.8 s
  Bas: 0.2%
  Eos: 1%
  Fbg: 226.8 mg/dL
  Hb: 13.3 g/dL
  Ht: 37.6%
  Lym: 76%
  MCH: 21.4 pg
  MCHC: 35.3%
  MCV: 60.7 fL
  Mono: 2%
  Neu: 20.2%
  PT: 12.7 s
  Plat: 132.7 x10_4/uL
  RBC: 621.4 x10_4/ul
  Ret: 7.2%
  WBC: 64 x10_2/uL
  KIDNEY_L: 0.9 g
  KIDNEY_R: 1 g
  KIDNEY_TOTAL: 1.9 g
  LIVER: 8.3 g
  ALP: 859.4 IU/L
  ALT: 31.2 IU/L
  AST: 65.4 IU/L
  CRE: 0.4 mg/dL
  DBIL: 0.072 mg/dL
  GLC: 197 mg/dL
  IP: 9.8 mg/dL
  K: 3.9 meq/L
  LDH: 129.6 IU/L
  Na: 142 meq/L
  PL: 129 mg/dL
  RALB: 3.3 g/dL
  TBIL: 0.1 mg/dL
  TC: 69.8 mg/dL
  TP: 5.5 g/dL
  gamma-GTP: 1.2 IU/L
[4]
  TERMINAL_BW: 212.9 g
  APTT: 19.8 s
  Bas: 0.4%
  Eos: 1%
  Fbg: 228.2 mg/dL
  Hb: 14.1 g/dL
  Ht: 39.5%
  Lym: 80.8%
  MCH: 22.1 pg
  MCHC: 35.6%
  MCV: 62.2 fL
  Mono: 2.4%
  Neu: 14.6%
  PT: 12.1 s
  Plat: 128.1 x10_4/uL
  RBC: 635.4 x10_4/ul
  Ret: 6.1%
  WBC: 76.1 x10_2/uL
  KIDNEY_L: 1 g
  KIDNEY_R: 1 g
  KIDNEY_TOTAL: 2 g
  LIVER: 9.5 g
  ALP: 1118.8 IU/L
  ALT: 35.2 IU/L
  AST: 66.6 IU/L
  CRE: 0.4 mg/dL
  DBIL: 0.078 mg/dL
  GLC: 182.2 mg/dL
  IP: 8.7 mg/dL
  K: 4 meq/L
  LDH: 120 IU/L
  Na: 142 meq/L
  PL: 146.6 mg/dL
  RALB: 3.5 g/dL
  TBIL: 0.1 mg/dL
  TC: 83.4 mg/dL
  TP: 5.6 g/dL
  gamma-GTP: 1 IU/L
[5]
  TERMINAL_BW: 212.3 g
  APTT: 17.9 s
  Bas: 0.2%
  Eos: 1%
  Fbg: 220.2 mg/dL
  Hb: 13 g/dL
  Ht: 36.9%
  Lym: 73.2%
  MCH: 21.4 pg
  MCHC: 35.3%
  MCV: 60.7 fL
  Mono: 2.8%
  Neu: 22.4%
  PT: 11.8 s
  Plat: 128.4 x10_4/uL
  RBC: 609.4 x10_4/ul
  Ret: 8.6%
  WBC: 61.1 x10_2/uL
  KIDNEY_L: 0.9 g
  KIDNEY_R: 0.9 g
  KIDNEY_TOTAL: 1.9 g
  LIVER: 9 g
  ALP: 991.8 IU/L
  ALT: 36 IU/L
  AST: 71.4 IU/L
  CRE: 0.4 mg/dL
  DBIL: 0.076 mg/dL
  GLC: 196.4 mg/dL
  IP: 10.7 mg/dL
  K: 3.8 meq/L
  LDH: 147.4 IU/L
  Na: 140.4 meq/L
  PL: 122 mg/dL
  RALB: 3.3 g/dL
  TBIL: 0.1 mg/dL
  TC: 69.8 mg/dL
  TP: 5.5 g/dL
  gamma-GTP: 0.8 IU/L
[6]
  TERMINAL_BW: 211.9 g
  APTT: 19.4 s
  Bas: 0%
  Eos: 1%
  Fbg: 230.6 mg/dL
  Hb: 13.5 g/dL
  Ht: 38.4%
  Lym: 71.8%
  MCH: 21.6 pg
  MCHC: 35.1%
  MCV: 61.4 fL
  Mono: 2%
  Neu: 24.6%
  PT: 12.2 s
  Plat: 118.7 x10_4/uL
  RBC: 625.2 x10_4/ul
  Ret: 8.6%
  WBC: 69.6 x10_2/uL
  KIDNEY_L: 0.9 g
  KIDNEY_R: 0.9 g
  KIDNEY_TOTAL: 1.8 g
  LIVER: 8.7 g
  ALP: 863 IU/L
  ALT: 31 IU/L
  AST: 69 IU/L
  CRE: 0.4 mg/dL
  DBIL: 0.082 mg/dL
  GLC: 190.8 mg/dL
  IP: 9.5 mg/dL
  K: 3.8 meq/L
  LDH: 196.2 IU/L
  Na: 141.8 meq/L
  PL: 149.8 mg/dL
  RALB: 3.4 g/dL
  TBIL: 0.1 mg/dL
  TC: 91 mg/dL
  TP: 5.7 g/dL
  gamma-GTP: 1 IU/L
[7]
  TERMINAL_BW: 212.4 g
  APTT: 18.1 s
  Bas: 0.2%
  Eos: 0.6%
  Fbg: 228.8 mg/dL
  Hb: 13.6 g/dL
  Ht: 38.4%
  Lym: 79.6%
  MCH: 21.5 pg
  MCHC: 35.4%
  MCV: 60.9 fL
  Mono: 2.2%
  Neu: 16.4%
  PT: 12.4 s
  Plat: 132.4 x10_4/uL
  RBC: 629.8 x10_4/ul
  Ret: 7.3%
  WBC: 61.3 x10_2/uL
  KIDNEY_L: 1 g
  KIDNEY_R: 0.9 g
  KIDNEY_TOTAL: 1.9 g
  LIVER: 8.8 g
  ALP: 1127.2 IU/L
  ALT: 25.6 IU/L
  AST: 65.2 IU/L
  CRE: 0.4 mg/dL
  DBIL: 0.076 mg/dL
  GLC: 201.4 mg/dL
  IP: 10 mg/dL
  K: 3.8 meq/L
  LDH: 200.8 IU/L
  Na: 142.4 meq/L
  PL: 141.4 mg/dL
  RALB: 3.6 g/dL
  TBIL: 0.1 mg/dL
  TC: 74.8 mg/dL
  TP: 5.6 g/dL
  gamma-GTP: 1 IU/L
[8]
  TERMINAL_BW: 208.4 g
  APTT: 22.1 s
  Bas: 0.4%
  Eos: 1.2%
  Fbg: 209 mg/dL
  Hb: 13.9 g/dL
  Ht: 38.9%
  Lym: 80.8%
  MCH: 21.4 pg
  MCHC: 35.7%
  MCV: 59.9 fL
  Mono: 1.8%
  Neu: 15%
  PT: 13.1 s
  Plat: 129.7 x10_4/uL
  RBC: 650 x10_4/ul
  Ret: 5.9%
  WBC: 63.6 x10_2/uL
  KIDNEY_L: 1 g
  KIDNEY_R: 0.9 g
  KIDNEY_TOTAL: 1.9 g
  LIVER: 9.6 g
  ALP: 1071.8 IU/L
  ALT: 27.8 IU/L
  AST: 64.6 IU/L
  CRE: 0.5 mg/dL
  DBIL: 0.084 mg/dL
  GLC: 196.4 mg/dL
  IP: 8.8 mg/dL
  K: 3.8 meq/L
  LDH: 141 IU/L
  Na: 142 meq/L
  PL: 143 mg/dL
  RALB: 3.6 g/dL
  TBIL: 0.1 mg/dL
  TC: 86 mg/dL
  TP: 5.7 g/dL
  gamma-GTP: 1.2 IU/L
